Data as given in patent US20060188921A1, “Methods for diagnosing and treating systemic lupus erythematosus disease and compositions thereof” (Wyeth, priority 2001, published 2006).

Test system: whole kidney samples, approximately 11,000 murine genes
Test: Kidney gene expression on oligonucleotide arrays in murine model of autoimmune kidney disease (untreated, rapamycin-treated, anti-B7-treated)
Format: in vivo, NZB/NZW F1 mice
Settings: Example 2(A); normalized = difference in expression of less than five versus untreated asymptomatic mice
Protocol: NZB/NZW F1 (B/W) mice develop an autoimmune kidney disease that is analogous to human systemic erythematosus. Mice, aged at intervals from 12 weeks (asymptomatic) to 42 weeks (diseased) were chosen to mimic the clinical presentation of patients with established SLE. By seven months of age, mice begin to develop nephritis characterized by proteinuria, anti-DNA antibody production and histopathologic changes in the kidney. […]
Labeled RNA was prepared from clones containing a T7 RNA polymerase promoter site by incorporating labeled ribonucleotides in an in vitro transcription (IVT) reaction. […] RNA was concentrated and then quantitated by spectrophotometry. […]
The labeled and fragmented RNA probes were diluted in 1×MES buffer, BIO948, Bio C, B cre, 100 μg/ml herring sperm DNA, and 50 μg/ml acetylated BSA. […] When biotin-labeled RNA was used, the hybridized RNA was stained with a streptavidin-phycoerythrin conjugate (Molecule Probes, Eugene, Oreg.) prior to reading. […] The arrays were again washed and stained with streptavidin SSPE-T prior to being reading. The arrays were read using a scanning confocal microscope made for Affymetrix by Molecular Dynamics (commercially available through Affymetrix, Santa Clara, Calif.). […]

CO[C@H]1C[C@@H]2CC[C@@H](C)[C@@](O)(O2)C(=O)C(=O)N2CCCC[C@H]2C(=O)O[C@H]([C@H](C)C[C@@H]2CC[C@@H](O)[C@H](OC)C2)CC(=O)[C@H](C)/C=C(\C)[C@@H](O)[C@@H](OC)C(=O)[C@H](C)C[C@H](C)/C=C/C=C/C=C/1C [rapamycin]
number of genes not normalized by rapamycin treatment: 23 genes
